This note sets out measurements from patent US6613317B1, “Volatile attractants for diabrotica species” (priority 1988, dated 2003).

Assay [1] has as its system western corn rootworm (WCR). The experiment in a line: Sticky trap attraction in corn, phenylethanol analogues (Example 6). Format: in vivo, Diabrotica virgifera virgifera. The settings on record: 100 mg per trap, four replicates, 24 hour; for Mean number of WCR per trap (± standard deviation), column WCW: Table 17. How it is done:
(§1) Test chemicals (purchased from Aldrich Chemical Co.; Milwaukee, Wis.) were applied by capillary micropipettes to cotton dental wicks that were attached to tops of 1.0 liter cylindrical paper cartons covered with TangleTrap™, Grand Rapids, Mich. The trapping techniques used were as previously described in Example 1. Unless otherwise indicated, all treatments were made at a dosage of 100 mg or 100 μL of attractant per trap. Control traps had untreated wicks. Four replicates of treated and untreated traps were positioned randomly 10 meters apart on top of 1 m high posts along the edges of 25-50 ha. fields of hybrid corn (Zea mays), infested with adult NCR, SCR, and WCR beetles. Several experiments detailed in the Tables were made in a 0.4 ha plot of sweet corn (Illini X-tra Sweet).
(§2) Attraction of Diabrotica species adults of the sticky traps was measured by the mean number of beetles caught after 1 day (ca. 24 hours) exposure. The significance of the treatments was determined by analysis of variance and the individual means were separated by Duncan's multiple range test (Statistical Package for the Social Sciences, Nie, et al., 2nd. ed. McGraw-Hill, New York (1975). The data was logarithmically transformed for statistical analysis. Means and standard deviations are presented for the untransformed data. Significance levels were set at P=0.05 for all statistical analyses.

Assay [2] deals with northern corn rootworm (NCR). The description is as above. Format: in vivo, Diabrotica barberi. The note with it: for Mean number of NCR per trap (± standard deviation) / Mean number (control subtracted) of NCR per trap: four replicates; for Mean number of NCR per trap (± standard deviation): 24 hour. How it is done:
as §1, §2

The test system of assay [3] is western corn rootworm (WCR) adults. The experiment in a line: Sticky trap attraction in corn, estragole analogues (Example 3). The class given is in vivo, Diabrotica virgifera virgifera. The settings on record: 100 mg per trap, n = 4; for Mean number of WCR per sticky trap after 24 hours: August 5 (Table 10). How it is done:
as §1, with “chemicals” for “chemicals (purchased from Aldrich Chemical Co.; Milwaukee, Wis.)”, “Cinnamyl alcohol, 4-methoxycinnamaldehyde, cinnamyl acetate, and 4-(4′methoxyphenyl)-3-butene-2-one which are solids at ambient temperature were prepared as standard w/v solutions in acetone prior to dosing the cotton wicks. All” for “Unless otherwise indicated, all”
as §2

Assay [4] deals with northern corn rootworm (NCR) adults. The assay is described as above. The note with it: 100 mg per trap, n = 4; for Mean number of NCR per sticky trap after 24 hours: August 5 (Table 10). The class given is in vivo, Diabrotica barberi. How it is done: as §1, with “chemicals” for “chemicals (purchased from Aldrich Chemical Co.; Milwaukee, Wis.)”, “Cinnamyl alcohol, 4-methoxycinnamaldehyde, cinnamyl acetate, and 4-(4′methoxyphenyl)-3-butene-2-one which are solids at ambient temperature were prepared as standard w/v solutions in acetone prior to dosing the cotton wicks. All” for “Unless otherwise indicated, all”
as §2

In assay [5] the test system is southern corn rootworm (SCR) adults. The description is as above. The settings on record: 100 mg per trap, n = 4; for Mean number of SCR per sticky trap after 24 hours: August 5 (Table 10). The class given is in vivo, Diabrotica undecimpunctata howardi. How it is done:
as §1, with “chemicals” for “chemicals (purchased from Aldrich Chemical Co.; Milwaukee, Wis.)”, “Cinnamyl alcohol, 4-methoxycinnamaldehyde, cinnamyl acetate, and 4-(4′methoxyphenyl)-3-butene-2-one which are solids at ambient temperature were prepared as standard w/v solutions in acetone prior to dosing the cotton wicks. All” for “Unless otherwise indicated, all”
as §2

Assay [6] relates to SCR. The experiment in a line: Limit of response rating of squash blossom volatiles on sticky traps (Example 5). The note with it: 24 hour; four replicate traps; 0.01 mg to 200 mg. Format: in vivo, Diabrotica undecimpunctata howardi. How it is done: (§3) Over 40 individual volatile chemicals have been isolated from Cucurbita maxima blossoms and circa 25 of these have been unequivocally identified (Andersen, J. F., J. Agric. Food Chem., 35:60-62 (1987): Andersen, J. F. and Metcalf, R. L., J. Chem. Ecol., 12:687-699 (1986)). The major odor components were evaluated as potential attractants for adult Diabrotica species using cylindrical sticky traps baited with dental cotton wicks (Metcalf, R. L., and Lampman, R. L., Paper submitted to J. Econ. Entomol., (1988)) containing from 0.01 mg to 200 mg of volatile compound.

Assay [7] deals with NCR. The description is as above. Format: in vivo, Diabrotica barberi. The settings on record: 24 hour; four replicate traps; 0.01 mg to 200 mg. How it is done:
as §3

In assay [8] the test system is WCR. The description is as above. Format: in vivo, Diabrotica virgifera virgifera. The note with it: 24 hour; four replicate traps; 0.01 mg to 200 mg. How it is done:
as §3

Setting [9] is: day 1 after single 100 mg dosage on cotton wick.
[10] abbreviates: day 2 after single 100 mg dosage on cotton wick.
[11] abbreviates: day 3 after single 100 mg dosage on cotton wick.
Setting [12] is: day 4 after single 100 mg dosage on cotton wick.
The mark [13] stands for this setting: day 5 after single 100 mg dosage on cotton wick.
[14] abbreviates: day 6 after single 100 mg dosage on cotton wick.
The mark [15] stands for this setting: day 7 after single 100 mg dosage on cotton wick.
[16] abbreviates: day 8 after single 100 mg dosage on cotton wick.
[17] abbreviates: day 11 after single 100 mg dosage on cotton wick.

Marks after values point to notes of the source that are not given here. Bounds are passed on as bounds.

Take `OCCc1ccc(F)cc1` [4-fluorophenylethanol]: in assay [1] (Table 15), the “Mean number of WCR per trap (±standard deviation)” value is given as 14.0 ± 12.3a per trap. The “Mean number of NCR per trap (± standard deviation)” value in assay [2] (Table 15, 100 mg per trap) came to 38.0 ± 6.2b per trap.

`OCCc1ccc(Cl)cc1` [4-chlorophenylethanol]: the “Mean number of WCR per trap (±standard deviation)” value in assay [1] (Table 15) is 13.7 ± 3.9a per trap. For the same compound, the “Mean number of NCR per trap (± standard deviation)” value in assay [2] (Table 15, 100 mg per trap) stood at 30.0 ± 7.4b per trap.

Turning to `COc1cccc(CCO)c1` [3-methoxyphenylethanol], the “Mean number of WCR per trap (±standard deviation)” value in assay [1] (Table 16) is listed as 3.7 ± 2.1a per trap. Besides, in assay [2] (Table 16, 100 mg per trap), the “Mean number of NCR per trap (± standard deviation)” value came to 7.2 ± 3.4a per trap.

Regarding `O=CC=Cc1ccccc1` [XII, cinnamaldehyde], the “Mean number of WCR adults per sticky trap (±standard deviation) after 24 hours” value is on record as 32.2 ± 8.5^b per sticky trap in assay [3] (August 4 second year), 4.0 ± 1.8^b per sticky trap in assay [3] (August 5 first year) and 1.3 ± 1.3^a per sticky trap in assay [3] (September 11). Moreover, the “Mean number of WCR per sticky trap after 24 hours” value (“Mean number of WCR per sticky trap” below) in assay [3] was 44.5 ± 25.5^d per sticky trap. Besides, the “Mean number of WCR (±standard deviation) per sticky trap after 24 hours” value in assay [3] (August 7 (Table 11)) is 61.5 ± 15.6^b per sticky trap. In assay [4], the “Mean number of NCR per sticky trap after 24 hours” value (“Mean number of NCR per sticky trap” below) is on record as 1.2 ± 1.3^a per sticky trap. Also, the “Mean number of NCR (±standard deviation) per sticky trap after 24 hours” value in assay [4] (August 7 (Table 11)) is listed as 0.3 ± 0.5^a per sticky trap. Further, the “Mean number of WCR per trap (± standard deviation), column WCW” value in assay [1] was 56.0 ± 34.6b per trap. Besides, the figures for the “Mean number of SCR adults per sticky trap (±standard deviation) after 24 hours” value in assay [5] (August 4 second year), in assay [5] (August 5 first year) and in assay [5] (September 11) were 135.5 ± 29.3^d per sticky trap, 431.2 ± 120.3^d per sticky trap and 24.0 ± 10.5^c per sticky trap, respectively. Also, in assay [5], the “Mean number of SCR per sticky trap after 24 hours” value (“Mean number of SCR per sticky trap” below) is 67.5 ± 23.1^d per sticky trap. Further, in assay [5] (August 7 (Table 11)), the “Mean number of SCR (±standard deviation) per sticky trap after 24 hours” value is on record as 63.5 ± 25.7^c per sticky trap. For the same compound, the “Mean number of NCR per trap (± standard deviation)” value in assay [2] (Table 17, 100 mg per trap) is recorded as 15.5 ± 3.8b per trap. Besides, in assay [6], the “Attractant Rating SCR (by limit of response)” value was “+4 (1-3)”. Further, the “Attractant Rating NCR (by limit of response)” value in assay [7] is 0 (200). Moreover, in assay [8], the “Attractant Rating WCR (by limit of response)” value was “+3 (3-10)”.

As to `COc1ccc(CCCO)cc1` [4-methoxyphenylpropanol], the “Mean number of WCR per trap (± standard deviation), column WCW” value in assay [1] was 3.2 ± 2.2a per trap. The “Mean number of NCR per trap (± standard deviation)” value in assay [2] (Table 17, 100 mg per trap) amounted to 15.5 ± 6.2b per trap.

As for `Cc1ccc(CCO)cc1` [4-methylphenylethanol], the “Mean number of WCR per trap (±standard deviation)” value in assay [1] (Table 15) is recorded as 12.2 ± 5.6a per trap. In assay [2] (Table 15, 100 mg per trap), the “Mean number of NCR per trap (± standard deviation)” value is on record as 89.2 ± 7.8c per trap.

Turning to `OCCCc1ccccc1`, the “Mean number of WCR per trap (± standard deviation), column WCW” value in assay [1] is given as 4.0 ± 2.9a per trap. The “Mean number of NCR per trap (± standard deviation)” value in assay [2] (Table 17, 100 mg per trap) came to 36.2 ± 12.2c per trap. The “Mean number (control subtracted) of NCR per trap” value was found to be 76.5 per trap in assay [2] (setting [9]); 115.3 per trap in assay [2] (setting [10]); 38.8 per trap in assay [2] (setting [11]); 25.0 per trap in assay [2] (setting [12]); 41.8 per trap in assay [2] (setting [13]); 10.5 per trap in assay [2] (setting [14]). The “Mean number (control subtracted) of NCR per trap” value in assay [2] (setting [15]) came to 10.7 per trap; in assay [2] (setting [16]), 29.5 per trap; in assay [2] (setting [17]) it was 4.5 per trap.

Turning to `O=[N+]([O-])c1ccc(CCO)cc1` [4-nitrophenylethanol], the “Mean number of WCR per trap (±standard deviation)” value in assay [1] (Table 15) is given as 7.9 ± 5.1a per trap. In assay [2] (Table 15, 100 mg per trap), the “Mean number of NCR per trap (± standard deviation)” value is 7.7 ± 2.7a per trap.

For `Nc1ccc(CCO)cc1` [4-aminophenylethanol], in assay [1] (Table 15), the “Mean number of WCR per trap (±standard deviation)” value is on record as 8.5 ± 3.4a per trap. In addition, the “Mean number of NCR per trap (± standard deviation)” value in assay [2] (Table 15, 100 mg per trap) is 10.5 ± 2.1a per trap.

Regarding `COc1ccccc1CCO` [2-methoxyphenylethanol], the “Mean number of WCR per trap (±standard deviation)” value in assay [1] (Table 16) worked out at 6.0 ± 5.1a per trap. Moreover, in assay [2] (Table 16, 100 mg per trap), the “Mean number of NCR per trap (± standard deviation)” value was determined as 13.5 ± 9.3a per trap.

In the case of `COc1ccc(CCO)cc1` [4-methoxyphenylethanol], the entries for the “Mean number of WCR per trap (±standard deviation)” value in assay [1] (Table 15) and in assay [1] (Table 16) were 5.7 ± 2.8a per trap and 3.5 ± 2.1a per trap, respectively. Also, the “Mean number of WCR per trap (± standard deviation), column WCW” value in assay [1] is 6.0 ± 4.2a per trap. The “Mean number of NCR per trap (± standard deviation)” value in assay [2] (Table 15, 100 mg per trap) came to 187.7 ± 62.5d* per trap; in assay [2] (Table 16, 100 mg per trap), 60.3 ± 26.8b* per trap; in assay [2] (Table 17, 100 mg per trap) it was 56.7 ± 7.5c per trap; in assay [2] (Table 18, 0.1 mg), 16.2 ± 1.2b per trap; in assay [2] (Table 18, 0.3 mg) it was 32.7 ± 9.4c per trap; in assay [2] (Table 18, 1 mg), 41.0 ± 23.4c per trap. For the same compound, the “Mean number of NCR per trap (± standard deviation)” value in assay [2] (Table 18, 3 mg) worked out at 72.0 ± 10.8d per trap. Moreover, in assay [2] (Table 18), the “lowest level attractive to NCR” value is recorded as at most 0.1 mg. Moreover, the “Mean number (control subtracted) of NCR per trap” value in assay [2] (setting [9]) amounted to 134.5 per trap; in assay [2] (setting [10]), 231.8 per trap; in assay [2] (setting [11]), 93.1 per trap; in assay [2] (setting [12]), 51.5 per trap; in assay [2] (setting [13]), 128.9 per trap; in assay [2] (setting [14]), 49.2 per trap. For the same compound, the “Mean number (control subtracted) of NCR per trap” value in assay [2] (setting [15]) is reported as 76.7 per trap; in assay [2] (setting [16]), 99.0 per trap; in assay [2] (setting [17]), 64.8 per trap.

`N#CC=Cc1ccccc1` [X, cinnamonitrile]: the figures for the “Mean number of WCR adults per sticky trap (±standard deviation) after 24 hours” value in assay [3] (August 4 second year) and in assay [3] (August 5 first year) were 32.7 ± 11.4^bc per sticky trap and 1.5 ± 6.6^ab per sticky trap, respectively. The “Mean number of WCR per sticky trap” value in assay [3] is 37.8 ± 7.8^cd per sticky trap. In addition, in assay [4], the “Mean number of NCR per sticky trap” value is reported as 0.3 ± 0.5^a per sticky trap. The “Mean number of SCR adults per sticky trap (±standard deviation) after 24 hours” value is 59.5 ± 49.0^c per sticky trap in assay [5] (August 4 second year) and 156.0 ± 37.2^c per sticky trap in assay [5] (August 5 first year). Further, the “Mean number of SCR per sticky trap” value in assay [5] is 47.5 ± 15.4^cd per sticky trap.

As for `O=C(O)CCc1ccccc1` [XXII, dihydrocinnamic acid], the “Mean number of WCR per sticky trap” value in assay [3] is given as 12.0 ± 3.6^a per sticky trap. Further, in assay [4], the “Mean number of NCR per sticky trap” value is reported as 4.0 ± 1.4^b per sticky trap. In addition, the “Mean number of SCR per sticky trap” value in assay [5] is recorded as 33.7 ± 8.7^bc per sticky trap.
